Measurements published in patent US20260125382A1, “COMPOUNDS FOR INHIBITING OR DEGRADING CDK2 AND/OR CDK9 AND MEDICINAL USE THEREOF” (KOREA RESEARCH INSTITUTE OF CHEMICAL TECHNOLOGY, priority 2022, published 2026).

Assays:
CDK2 = molecular target: T1, CDK2 (Homo sapiens, UniProt P24941); test: CDK protein degradation activity (Western blotting), CDK2; format: cell-based; settings: MDA-MB-231 cells, 16 hours, Western blot
T1 construct: endogenous in cells; host or cells: MDA-MB-231
How it was run: (§1)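 CDK2 and CDK9 protein levels measured by Western blot with densitometry, using tubulin as loading reference. Cells were MDA-MB-231, exposed for 16 h to 100 nM, 1 μM or 10 μM compound or to DMSO.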

CDK9 = molecular target: T2, CDK9 (Homo sapiens, UniProt P50750); test: CDK protein degradation activity (Western blotting), CDK9; format: cell-based; settings: MDA-MB-231 cells, 16 hours, Western blot
T2 construct: endogenous in cells; host or cells: MDA-MB-231
T2 sequence (P50750 whole entry): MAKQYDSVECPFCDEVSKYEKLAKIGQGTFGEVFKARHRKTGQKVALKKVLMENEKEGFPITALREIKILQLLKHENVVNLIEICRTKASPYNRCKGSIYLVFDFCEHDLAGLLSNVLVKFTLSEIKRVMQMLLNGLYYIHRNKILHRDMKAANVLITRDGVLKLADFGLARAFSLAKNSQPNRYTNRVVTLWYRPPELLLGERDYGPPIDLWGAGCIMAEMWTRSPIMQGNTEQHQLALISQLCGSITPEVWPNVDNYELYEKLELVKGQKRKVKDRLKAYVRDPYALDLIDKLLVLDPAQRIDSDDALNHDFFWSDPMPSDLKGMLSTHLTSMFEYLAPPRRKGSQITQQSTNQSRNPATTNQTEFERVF
How it was run: as §1

CDK2/cyclin A = molecular target: T3, CDK2/cyclin A (Homo sapiens, UniProt P24941); test: CDK protein inhibition, KINOMEscan (Eurofins), CDK2/cyclin A; format: binding; settings: for IC50: Table 17, unit inferred
T3 construct: purchased Eurofins Scientific

SMILES: Cc1cccc(C(=O)N[C@H]2C[C@H](n3cnc4c(NCC5CCN(CC6CCN(C(=O)CNc7ccc8c(c7)C(=O)N(C7CCC(=O)NC7=O)C8=O)CC6)CC5)ncnc43)C2)n1 (stereo partly shown) [Compound 74, N-((1r,3r)-3-(6-(((1-((1-((2-(2,6-dioxopiperidin-3-yl)-1,3-dioxoisoindolin-5-yl)glycyl)piperidin-4-yl)methyl)piperidin-4-yl)methyl)amino)-9H-purin-9-yl)cyclobutyl)-6-methylpicolinamide]
- Enzyme degradation CDK2 (% remaining) @ 0.1 μM (CDK2): 30%
- Enzyme degradation CDK2 (% remaining) @ 1 μM (CDK2): 40%
- Enzyme degradation CDK2 (% remaining) @ 10 μM (CDK2): 50%
- Enzyme degradation CDK9 (% remaining) @ 0.1 μM (CDK9): 0/0/0%
- Enzyme degradation CDK9 (% remaining) @ 1 μM (CDK9): 0/0/0%
- Enzyme degradation CDK9 (% remaining) @ 10 μM (CDK9): 0/0/0%
- IC50 (CDK2/cyclin A): > 10000 nM

SMILES: Cc1cccc(C(=O)N[C@H]2C[C@H](n3cnc4c(NCC5CCN(C(=O)CCCCCNC(=O)CNc6ccc7c(c6)C(=O)N([C@@H]6CCC(=O)NC6=O)C7=O)CC5)ncnc43)C2)n1 (stereo in doubt) [Compound 61, N-((1r,3r)-3-(6-(((1-(6-(2-((2-(2,6-dioxopiperidin-3-yl)-1,3-dioxoisoindolin-5-yl)amino)acetamido)hexanoyl)piperidin-4-yl)methyl)amino)-9H-purin-9-yl)cyclobutyl)-6-methylpicolinamide]
- Enzyme degradation CDK2 (% remaining) @ 0.1 μM (CDK2): 100%
- Enzyme degradation CDK2 (% remaining) @ 1 μM (CDK2): 100%
- Enzyme degradation CDK2 (% remaining) @ 10 μM (CDK2): 40%
- Enzyme degradation CDK9 (% remaining) @ 0.1 μM (CDK9): 80%
- Enzyme degradation CDK9 (% remaining) @ 1 μM (CDK9): 50%
- Enzyme degradation CDK9 (% remaining) @ 10 μM (CDK9): 10%
- CDK2/cyclin A inhibition (%) (at concentration of 1 μM) (CDK2/cyclin A): 84%

SMILES: Cc1cccc(C(=O)N[C@H]2C[C@@H](n3cnc4c(NCCC5CCN(CC6CCN(C(=O)CNc7ccc8c(c7)C(=O)N(C7CCC(=O)NC7=O)C8=O)CC6)CC5)ncnc43)C2)n1 (stereo partly shown) [Compound 125, N-((1s,3s)-3-(6-((2-(1-((1-((2-(2,6-dioxopiperidin-3-yl)-1,3-dioxoisoindolin-5-yl)glycyl)piperidin-4-yl)methyl)piperidin-4-yl)ethyl)amino)-9H-purin-9-yl)cyclobutyl)-6-methylpicolinamide]
- Enzyme degradation CDK2 (% remaining) @ 0.1 μM (CDK2): 30%
- Enzyme degradation CDK2 (% remaining) @ 1 μM (CDK2): 10%
- Enzyme degradation CDK2 (% remaining) @ 10 μM (CDK2): 20%
- Enzyme degradation CDK9 (% remaining) @ 0.1 μM (CDK9): 0/0/0%
- Enzyme degradation CDK9 (% remaining) @ 1 μM (CDK9): 0/0/0%
- Enzyme degradation CDK9 (% remaining) @ 10 μM (CDK9): 0/0/0%
- IC50 (CDK2/cyclin A): 1300 nM

SMILES: Cc1cccc(C(=O)N[C@H]2C[C@@H](n3cnc4c(Nc5ccc(N6CCN(CC7CCN(C(=O)COc8cccc9c8C(=O)N(C8CCC(=O)NC8=O)C9=O)CC7)CC6)cc5)ncnc43)C2)n1 (stereo partly shown) [Compound 91, N-((1s,3s)-3-(6-((4-(4-((1-(2-((2-(2,6-dioxopiperidin-3-yl)-1,3-dioxoisoindolin-4-yl)oxy)acetyl)piperidin-4-yl)methyl)piperazin-1-yl)phenyl)amino)-9H-purin-9-yl)cyclobutyl)-6-methylpicolinamide]
- Enzyme degradation CDK2 (% remaining) @ 0.1 μM (CDK2): 0/0/0%
- Enzyme degradation CDK2 (% remaining) @ 1 μM (CDK2): 0/0/0%
- Enzyme degradation CDK2 (% remaining) @ 10 μM (CDK2): 0/0/0%
- Enzyme degradation CDK9 (% remaining) @ 0.1 μM (CDK9): 0/0/0%
- Enzyme degradation CDK9 (% remaining) @ 1 μM (CDK9): 0/0/0%
- Enzyme degradation CDK9 (% remaining) @ 10 μM (CDK9): 0/0/0%
- IC50 (CDK2/cyclin A): 613 nM

SMILES: Cc1cccc(C(=O)NC2CC(n3cnc4c(NC5CCN(C(=O)COCCOCCNC(=O)CNc6ccc7c(c6)C(=O)N([C@H]6CCC(=O)NC6=O)C7=O)CC5)ncnc43)C2)n1 (stereo partly shown) [Compound 9, N-((1s,3s)-3-(6-((1-(2-(2-(2-(2-((2-(2,6-dioxopiperidin-3-yl)-1,3-dioxoisoindolin-5-yl)amino)acetamido)ethoxy)ethoxy)acetyl)piperidin-4-yl)amino)-9H-purin-9-yl)cyclobutyl)-6-methylpicolinamide]
- CDK2/cyclin A inhibition (%) (at concentration of 1 μM) (CDK2/cyclin A): 92%

SMILES: Cc1cccc(C(=O)NC2CC(n3cnc4c(NC5CCN(C(=O)CCCCCNc6cccc7c6C(=O)N([C@@H]6CCC(=O)NC6=O)C7=O)CC5)ncnc43)C2)n1 (stereo partly shown) [Compound 6, N-((1r,3r)-3-(6-((1-(6-((2-(2,6-dioxopiperidin-3-yl)-1,3-dioxoisoindolin-4-yl)amino)hexanoyl)piperidin-4-yl)amino)-9H-purin-9-yl)cyclobutyl)-6-methylpicolinamide]
- CDK2/cyclin A inhibition (%) (at concentration of 1 μM) (CDK2/cyclin A): 88%

SMILES: O=C1CCC(N2C(=O)c3cccc(NCC(=O)N4CCC(CN5CCN(c6ccc(Nc7ncnc8c7ncn8[C@H]7C[C@@H](NC(=O)Cc8ccccc8)C7)cc6)CC5)CC4)c3C2=O)C(=O)N1 (stereo partly shown) [Compound 176, N-((1s,3s)-3-(6-((4-(4-((1-((2-(2,6-dioxopiperidin-3-yl)-1,3-dioxoisoindolin-4-yl)glycyl)piperidin-4-yl)methyl)piperazin-1-yl)phenyl)amino)-9H-purin-9-yl)cyclobutyl)-2-phenylacetamide]
- Enzyme degradation CDK2 (% remaining) @ 0.1 μM (CDK2): 0/0/0%
- Enzyme degradation CDK2 (% remaining) @ 1 μM (CDK2): 0/0/0%
- Enzyme degradation CDK2 (% remaining) @ 10 μM (CDK2): 0/0/0%
- Enzyme degradation CDK9 (% remaining) @ 0.1 μM (CDK9): 0/0/0%
- Enzyme degradation CDK9 (% remaining) @ 1 μM (CDK9): 0/0/0%
- Enzyme degradation CDK9 (% remaining) @ 10 μM (CDK9): 0/0/0%
- IC50 (CDK2/cyclin A): 439 nM

SMILES: Cc1cccc(C(=O)NC2CC(n3cnc4c(NC5CCN(C(=O)COCCOCCNc6cccc7c6C(=O)N([C@H]6CCC(=O)NC6=O)C7=O)CC5)ncnc43)C2)n1 (stereo partly shown) [Compound 12, N-((1s,3s)-3-(6-((1-(2-(2-(2-((2-(2,6-dioxopiperidin-3-yl)-1,3-dioxoisoindolin-4-yl)amino)ethoxy)ethoxy)acetyl)piperidin-4-yl)amino)-9H-purin-9-yl)cyclobutyl)-6-methylpicolinamide]
- CDK2/cyclin A inhibition (%) (at concentration of 1 μM) (CDK2/cyclin A): 86%

SMILES: Cc1cccc(C(=O)NC2CC(n3cnc4c(NC5CCN(C(=O)COCCOCCNc6ccc7c(c6)C(=O)N([C@H]6CCC(=O)NC6=O)C7=O)CC5)ncnc43)C2)n1 (stereo partly shown) [Compound 11, N-((1s,3s)-3-(6-((1-(2-(2-(2-((2-(2,6-dioxopiperidin-3-yl)-1,3-dioxoisoindolin-5-yl)amino)ethoxy)ethoxy)acetyl)piperidin-4-yl)amino)-9H-purin-9-yl)cyclobutyl)-6-methylpicolinamide]
- CDK2/cyclin A inhibition (%) (at concentration of 1 μM) (CDK2/cyclin A): 78%

SMILES: Cc1cccc(C(=O)NC2CC(n3cnc4c(NCC5CCN(C(=O)CCCCCNC(=O)COc6ccc7c(c6)C(=O)N([C@@H]6CCC(=O)NC6=O)C7=O)CC5)ncnc43)C2)n1 (stereo partly shown) [Compound 63, N-((1r,3r)-3-(6-(((1-(6-(2-((2-(2,6-dioxopiperidin-3-yl)-1,3-dioxoisoindolin-5-yl)oxy)acetamido)hexanoyl)piperidin-4-yl)methyl)amino)-9H-purin-9-yl)cyclobutyl)-6-methylpicolinamide]
- CDK2/cyclin A inhibition (%) (at concentration of 1 μM) (CDK2/cyclin A): 83%

SMILES: Cc1cccc(C(=O)NC2CC(n3cnc4c(NC5CCN(C(=O)COCCOCCNC(=O)CNc6cccc7c6C(=O)N([C@H]6CCC(=O)NC6=O)C7=O)CC5)ncnc43)C2)n1 (stereo partly shown) [Compound 10, N-((1s,3s)-3-(6-((1-(2-(2-(2-(2-((2-(2,6-dioxopiperidin-3-yl)-1,3-dioxoisoindolin-4-yl)amino)acetamido)ethoxy)ethoxy)acetyl)piperidin-4-yl)amino)-9H-purin-9-yl)cyclobutyl)-6-methylpicolinamide]
- CDK2/cyclin A inhibition (%) (at concentration of 1 μM) (CDK2/cyclin A): 90%

SMILES: Cc1cccc(C(=O)N[C@H]2C[C@H](n3cnc4c(NCC5CCN(C(=O)CCCCCNc6ccc7c(c6)C(=O)N([C@@H]6CCC(=O)NC6=O)C7=O)CC5)ncnc43)C2)n1 [Compound 65, N-((1r,3r)-3-(6-(((1-(6-((2-(2,6-dioxopiperidin-3-yl)-1,3-dioxoisoindolin-5-yl)amino)hexanoyl)piperidin-4-yl)methyl)amino)-9H-purin-9-yl)cyclobutyl)-6-methylpicolinamide]
- Enzyme degradation CDK2 (% remaining) @ 0.1 μM (CDK2): 100%
- Enzyme degradation CDK2 (% remaining) @ 1 μM (CDK2): 50%
- Enzyme degradation CDK2 (% remaining) @ 10 μM (CDK2): 20%
- Enzyme degradation CDK9 (% remaining) @ 0.1 μM (CDK9): 30%
- Enzyme degradation CDK9 (% remaining) @ 1 μM (CDK9): 10%
- Enzyme degradation CDK9 (% remaining) @ 10 μM (CDK9): 0%
- CDK2/cyclin A inhibition (%) (at concentration of 1 μM) (CDK2/cyclin A): 87%

SMILES: Cc1cccc(C(=O)NC2CC(n3cnc4c(NC5CCN(C(=O)CCCCCNc6ccc7c(c6)C(=O)N([C@@H]6CCC(=O)NC6=O)C7=O)CC5)ncnc43)C2)n1 (stereo partly shown) [Compound 5, N-((1r,3r)-3-(6-((1-(6-((2-(2,6-dioxopiperidin-3-yl)-1,3-dioxoisoindolin-5-yl)amino)hexanoyl)piperidin-4-yl)amino)-9H-purin-9-yl)cyclobutyl)-6-methylpicolinamide]
- CDK2/cyclin A inhibition (%) (at concentration of 1 μM) (CDK2/cyclin A): 91%
